Assays:
[1] = tested on: cerebral infarction models of wild-type mice; assay: Neurological symptoms (Bederson score) in wild-type mouse cerebral infarction model, 15-HETrE intraperitoneal; assay type: in vivo; conditions: 600 μg per mouse intraperitoneally 24 hours after ischemia-reperfusion, vs vehicle, FIG. 8
Experimental: (§1) To identify lipids associated with pathological conditions of cerebral infarction, a comprehensive analysis was performed on lipids extracted from the cerebral tissue of a mouse model of cerebral infarction. The mouse model of cerebral infarction was prepared according to the following procedure. An embolization suture with a silicone-coated tip (Ethilon (suture gauge number 7-0), Johnson & Johnson) was inserted through the common carotid artery of 8 to 24-week-old C57BL/6N mice. Cerebral temperature was maintained at 36° C., cerebral blood flow was monitored by Doppler blood flowmeter ALF21 (ADVANCE CO., LTD.), and the embolization suture was placed at the origin of the middle cerebral artery so that the cerebral blood flow in the perfused area of the middle cerebral artery was maintained at 20 to 40% of the steady state. By removing the embolization suture after 60 minutes of ischemia, the cerebral tissue was reperfused. As a control, sham-operated mice were prepared.
(§2) Then, cerebral infarction models of PLA2g2e knockout mice (Sato H., et al., 2014, Cell Metab, 20: 119-132) and wild-type mice were prepared by the same procedure as in 1 above (n=12, respectively), and neurological symptoms after ischemia-reperfusion were assessed over time in accordance with the neurological symptoms assessment score reported by Bederson, et al. (Bederson J B, et al., 1986, Stroke, 17: 472-476). […]

[2] = tested on: cerebral infarction models of wild-type mice; assay: Cerebral infarct volume 28 days after ischemia-reperfusion in wild-type mouse model, 15-HETrE intravenous; assay type: in vivo; conditions: 600 ng intravenously 24, 48, 72 hours, p<0.05 vs vehicle, FIG. 15
Experimental: as §1, with “By removing the embolization suture after 60 minutes of ischemia, the cerebral tissue was reperfused. As a control, sham-operated mice were prepared.” left out
(§3) Sections were prepared from the cerebral tissue 4 days after ischemia-reperfusion and immunohistochemistry was performed using anti-MAP2 antibody by the same procedure as in 2 above. The cerebral infarct volume was calculated based on the region that was not stained by the anti-MAP2 antibody, which is regarded as the cerebral infarct area.
(§4) Cerebral infarction models of wild-type mice were prepared (n=10) by the same procedure as in 1 above. […] The cerebral infarct volume 28 days after ischemia-reperfusion was calculated by the procedure in 6 above.

[3] = tested on: cerebral infarction models of wild-type mice; assay: Long-term neurological symptoms by corner test and cylinder test, 15-HETrE intravenous; assay type: in vivo, mouse; conditions: 600 ng intravenously 24, 48, 72 hours, up to 28 days, FIG. 16, 17
Experimental: as §1, §4
In addition, long-term neurological symptoms were evaluated over time up to 28 days after ischemia-reperfusion by a corner test and a cylinder test (Nat. Med., 2017 June; 23(6):723-732). […]

[4] = tested on: neurons around the infarct area; assay: RNA-seq and GO analysis of neurons around the infarct area, 15-HETrE intravenous; assay type: in vivo, mouse; conditions: wild-type mice; 600 ng intravenously 24, 48, 72 hours; day 4; RNA-seq vs vehicle; FIG. 18
Experimental: Cerebral infarction models of neuron-specific Padi4cKO mice and wild-type mice were prepared by the same procedure as in 1 above. At 4 days after ischemia-reperfusion, the brain was isolated after transcardial perfusion with artificial cerebrospinal fluid. The brain was sliced into 300 lam thick sections and homogenized after treated with pronase. Neurons around the infarct area were isolated using anti-Thy1.2 Antibody (BioLegend) by a cell sorter (BD FACSAria III). Single-cell RNA-seq analysis was performed using Chromium Next GEM Single Cell 3′ Kit (10× Genomics) and DNB-seq (MGI Tech), and the results of cell population clustering were visualized as a UMAP plot using Loupe Browser (10× Genomics). A gene ontology (GO) analysis was also performed for each cluster using g:profiler (https:/biit.cs.ut.ee/gprofiler/gost).
Cerebral infarction models of wild-type mice was prepared by the same procedure as in 1 above. At 24, 48, and 72 hours after ischemia-reperfusion, 15-HETrE (600 ng)/phosphate buffer was administered intravenously through the orbital venous plexus. Neurons around the infarct area were isolated from mice on day 4 after ischemia-reperfusion by the procedure in 7 above, and RNA-seq analysis was performed. The analysis results were visualized as a volcano plot using Loupe Browser, and GO analysis was performed using g:profiler. […]

[5] = tested on: cerebral infarction model of PLA2g2e knockout mice; assay: Cerebral infarct volume (anti-MAP2 staining) in PLA2g2e knockout mouse cerebral infarction model, oral lipid; assay type: in vivo; conditions: 1 mg orally 24, 48 and 72 hours after ischemia-reperfusion, 4 days after ischemia-reperfusion, FIG. 10
Experimental: as §1, with “prepared. […]” for “prepared.”
as §3

[6] = tested on: promoter region of the mouse Padi4 gene; assay: Padi4 promoter luciferase reporter assay in Neuro2A cells; assay type: cell-based; conditions: lipids 10 μM, 24 hours, relative to untreated cells = 1, FIG. 9
Experimental: To identify the lipids inducing PADI4 expression, a luciferase reporter vector was prepared by incorporating the promoter region (SEQ ID NO: 5) of the mouse Padi4 gene (NCBI database accession number: NM_011061) into pGL3-Basic (Promega). The reporter vector was transfected into Neuro2A cells using PEI Max (Polysciences), and reporter cells were obtained. After reporter cells were cultured in media supplemented with lipids (10 μM final concentration) for 24 hours, the luciferase activity was measured with Luciferase Assay System (Promega). […]

[7] = tested on: cerebral infarction model of PLA2g2e knockout mice; assay: Neurological symptoms over time in PLA2g2e knockout mouse cerebral infarction model, oral lipid; assay type: in vivo; conditions: 1 mg orally 24, 48, 72 hours, vs vehicle or stearic acid, p<0.001, FIG. 11
Experimental: as §1, with “By removing the embolization suture after 60 minutes of ischemia, the cerebral tissue was reperfused. As a control, sham-operated mice were prepared.” left out
as §2
In addition, neurological symptoms after ischemia-reperfusion were evaluated over time according to the same procedure as in 2 above.

PADI4-positive neurons = assay: Number of PADI4-positive neurons in the peri-infarct area (immunohistochemistry); assay type: in vivo, mouse; conditions: PLA2g2e knockout mice; 1 mg orally 24, 48, 72 hours; 4 days after ischemia-reperfusion; cells per visual field; FIG. 12
Experimental: Then, mice were perfused and fixed transcardially using a 4% paraformaldehyde solution 7 days after ischemia-reperfusion, and the brains were isolated. From the isolated cerebral tissue, sections of 1 mm thickness were prepared, embedded in paraffin, thinly sliced to 5 μm, and immunohistochemistry was performed according to an ordinary method. Anti-MAP2 antibody (Sigma-Aldrich, Cat. #M4403) (1:1000 dilution) was used as a primary antibody, and anti-mouse IgG antibody derived from goat (Jackson Immuno Research Laboratories, Inc., Cat. #115-005-003) (1:300 dilution) was used as a secondary antibody. In the figure, the scale bar indicates 1 mm, and the round linear object is an air bubble that was mixed in during the preparation of the specimen. The ischemic necrotic region (unstained region) in the cerebral infarction model of PLA2g2e knockout mice has expanded compared to the cerebral infarction model of wild-type mice. […]
Also, sections were prepared from the cerebral tissue 4 days after ischemia-reperfusion and PADI4-positive neurons were detected by immunohistochemistry by the same procedure as in 2 above, and the number of cells per visual field (approximately 0.1 square millimeter) in the pen-infarct area was counted. […]

[8] = in vivo, po; cited from earlier work

SMILES	neurological symptoms (Bederson neurological symptoms assessment score) [1]	cerebral infarct volume [2]	long-term neurological symptoms (corner test and cylinder test) [3]	expression of genes associated with neural tissue formation, neurite formation and synapse formation [4]	cerebral infarct volume [5]	Padi4 promoter inducing activity (luciferase activity) [6]	neurological symptoms after ischemia-reperfusion [7]	number of PADI4-positive neurons around the cerebral infarct area (PADI4-positive neurons)	migration into and accumulation in cerebral tissue [8]
CCCCC[C@H](O)/C=C/C=C\C/C=C\CCCCCCC(=O)O [15-HETrE, 15-hydroxyeicosatrienoic acid]	improved	decreased the cerebral infarct volume	improved neurological symptoms up to 28 days	highly expressed	–	–	–	–	–
CCCCCCCCCCCCCCCCCC(=O)O [stearic acid, reference compound]	–	–	–	–	did not change the cerebral infarct volume	–	–	–	–
CCCCC/C=C\C/C=C\C/C=C\CCCCCCC(=O)O [DGLA, dihomo-γ-linolenic acid]	–	–	–	–	decreased the cerebral infarct volume	induce Padi4 promoter activity	improvement in neurological symptoms	increased	migrate well into the cerebral tissue and are accumulated in the cerebral tissue even by oral intake
